# According to US20140005163A1 (NOVARTIS AG, priority 2010, published 2014):
# Legend:
# PI3K gamma = target: T1, PI3K gamma (Homo sapiens, UniProt P48736); test: PI3K gamma kinase assay (Kinase-Glo luminescence); assay type: biochemical
# T1 construct: His tag (C); made in house; host or cells: baculovirus (pVL1393); Tn5 or TiniPro insect cells; construct from Roger Williams lab, MRC LMB
# Summary of the method: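 PI3Kγ (150 nM) reaction run 120 min at room temperature with phosphatidylinositol substrate (10 μg/mL) and ATP (1 μM) in Tris pH 7.5 buffer containing MgCl2, NaCl, CHAPS and DTT. Remaining ATP detected by Kinase-Glo luminescence; 8 concentrations per compound, IC50 from 4-parameter curve fitting.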
# mTOR = target: T2, mTOR (Homo sapiens, UniProt P42345); test: Biochemical assay for m-TOR by TR-FRET; conditions: 8 μM ATP, 400 nM GFP-4EBP1, 0.5 nM mTOR
# T2 construct: purchased Invitrogen Corporation (Carlsbad/CA, USA) PV4753
# Summary of the method: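 TR-FRET read-out: Tb-labelled anti-p4EBP1 pThr46 antibody (0.5 nM), added in EDTA to stop the reaction, detects phosphorylated GFP-4EBP1 after 15 min. Kinase step used 0.5 nM mTOR, 400 nM substrate, 8 μM ATP, MnCl2-containing HEPES buffer pH 7.5, room temperature.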
# T1 sequence (P48736 144-1102 limits assumed): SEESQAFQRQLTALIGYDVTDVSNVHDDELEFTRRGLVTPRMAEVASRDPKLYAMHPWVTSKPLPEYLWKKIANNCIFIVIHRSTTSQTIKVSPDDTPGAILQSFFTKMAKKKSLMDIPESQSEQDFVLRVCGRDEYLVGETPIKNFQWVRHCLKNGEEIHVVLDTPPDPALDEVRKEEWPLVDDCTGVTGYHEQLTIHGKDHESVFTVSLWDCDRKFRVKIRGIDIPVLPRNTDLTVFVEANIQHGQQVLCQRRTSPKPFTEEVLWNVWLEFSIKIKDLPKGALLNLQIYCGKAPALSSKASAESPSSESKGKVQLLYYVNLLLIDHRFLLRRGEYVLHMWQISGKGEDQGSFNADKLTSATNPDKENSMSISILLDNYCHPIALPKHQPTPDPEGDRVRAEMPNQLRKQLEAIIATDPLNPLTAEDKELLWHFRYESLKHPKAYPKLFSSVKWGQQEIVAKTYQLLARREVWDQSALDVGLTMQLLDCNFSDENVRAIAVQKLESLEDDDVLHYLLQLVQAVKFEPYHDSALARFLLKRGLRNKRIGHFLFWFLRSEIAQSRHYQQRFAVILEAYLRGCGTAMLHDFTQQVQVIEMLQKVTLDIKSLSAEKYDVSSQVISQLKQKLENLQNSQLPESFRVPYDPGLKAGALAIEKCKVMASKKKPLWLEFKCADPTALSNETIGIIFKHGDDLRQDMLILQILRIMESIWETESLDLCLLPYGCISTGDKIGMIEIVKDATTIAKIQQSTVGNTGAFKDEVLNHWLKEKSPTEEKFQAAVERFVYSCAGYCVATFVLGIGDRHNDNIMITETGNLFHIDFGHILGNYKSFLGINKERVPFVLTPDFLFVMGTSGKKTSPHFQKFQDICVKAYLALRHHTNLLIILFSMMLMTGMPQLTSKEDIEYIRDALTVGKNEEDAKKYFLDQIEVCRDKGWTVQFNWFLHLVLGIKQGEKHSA
# T2 sequence (P42345 1360-2549 limits assumed): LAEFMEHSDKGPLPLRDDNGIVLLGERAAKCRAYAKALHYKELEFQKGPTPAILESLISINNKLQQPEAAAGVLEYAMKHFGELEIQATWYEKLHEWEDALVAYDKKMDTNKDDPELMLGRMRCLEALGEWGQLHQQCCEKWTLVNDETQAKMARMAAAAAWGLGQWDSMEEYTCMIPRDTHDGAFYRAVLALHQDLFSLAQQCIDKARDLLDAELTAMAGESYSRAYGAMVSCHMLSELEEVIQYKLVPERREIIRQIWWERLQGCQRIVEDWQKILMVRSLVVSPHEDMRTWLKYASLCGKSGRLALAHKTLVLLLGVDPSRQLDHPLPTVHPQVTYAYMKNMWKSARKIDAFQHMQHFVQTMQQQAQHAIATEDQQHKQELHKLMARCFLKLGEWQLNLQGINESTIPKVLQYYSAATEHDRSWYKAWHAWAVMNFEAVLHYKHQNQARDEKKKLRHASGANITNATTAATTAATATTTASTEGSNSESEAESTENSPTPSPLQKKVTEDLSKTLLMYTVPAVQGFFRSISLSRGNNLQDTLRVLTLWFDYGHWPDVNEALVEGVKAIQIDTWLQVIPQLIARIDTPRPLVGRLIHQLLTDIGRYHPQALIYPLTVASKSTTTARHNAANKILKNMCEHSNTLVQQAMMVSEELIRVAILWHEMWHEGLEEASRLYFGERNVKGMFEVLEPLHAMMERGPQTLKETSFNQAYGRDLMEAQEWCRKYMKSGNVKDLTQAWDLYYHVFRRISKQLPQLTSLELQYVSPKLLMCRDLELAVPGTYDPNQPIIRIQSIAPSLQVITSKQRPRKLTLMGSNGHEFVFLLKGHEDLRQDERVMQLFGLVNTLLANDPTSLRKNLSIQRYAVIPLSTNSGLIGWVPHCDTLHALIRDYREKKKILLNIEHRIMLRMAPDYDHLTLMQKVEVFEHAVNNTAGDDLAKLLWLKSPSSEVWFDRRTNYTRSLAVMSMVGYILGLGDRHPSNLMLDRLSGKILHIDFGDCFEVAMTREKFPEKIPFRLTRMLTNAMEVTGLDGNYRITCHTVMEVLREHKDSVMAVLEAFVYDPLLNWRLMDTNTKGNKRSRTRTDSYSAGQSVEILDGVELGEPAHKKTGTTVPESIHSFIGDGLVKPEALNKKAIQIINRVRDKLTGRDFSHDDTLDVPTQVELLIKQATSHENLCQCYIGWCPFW
structure (smiles),measurement,setting,value
"Cc1nn(C)cc1-n1c(=O)n(C)c2cnc3ccc(-c4ccc(-c5ncc[nH]5)cc4)cc3c21 [Example 77, 1-(1,3-Dimethyl-1H-pyrazol-4-yl)-8-[4-(1H-imidazol-2-yl)-phenyl]-3-methyl-1,3-dihydro-imidazo[4,5-c]quinolin-2-one]",IC50,PI3K gamma,75 nM
same,IC50,mTOR,< 3 nM
"Cc1nn(C)cc1-n1c(=S)n(C)c2cnc3ccc(-c4cccnc4)cc3c21 [Example 128.1, 1-(1,3-Dimethyl-1H-pyrazol-4-yl)-3-methyl-8-pyridin-3-yl-1,3-dihydro-imidazo[4,5-c]quinoline-2-thione]",IC50,PI3K gamma,142 nM
same,IC50,mTOR,69 nM
"COc1ccc(-c2ccc3ncc4c(c3c2)n(-c2cn(C)nc2C)c(=S)n4C)cc1OC [Example 128.2, 8-(3,4-Dimethoxy-phenyl)-1-(1,3-dimethyl-1H-pyrazol-4-yl)-3-methyl-1,3-dihydro-imidazo[4,5-c]quinoline-2-thione]",IC50,PI3K gamma,117 nM
same,IC50,mTOR,12 nM
"CCn1cc(-n2c(=O)n(C)c3cnc4ccc(-c5ccc(OC)c(OC)c5)nc4c32)c(C)n1 [Example 254, 8-(3,4-Dimethoxy-phenyl)-1-(1-ethyl-3-methyl-1H-pyrazol-4-yl)-3-methyl-1,3-dihydro-1,3,5,9-tetraaza-cyclopenta[a]naphthalen-2-one]",IC50,PI3K gamma,145 nM
same,IC50,mTOR,65 nM
